Results taken from US20230399287A1, “NOVEL COMPOUNDS” (Sitryx Therapeutics Limited, priority 2020, published 2023).

Tests used:
[1] = Hepatocyte stability assay (mouse); format: in vitro ADME; details: mouse, cryopreserved hepatocytes, 10 μM compound, 60 min, read-out: T½
Source text: (§1) Defrosted cryo-preserved hepatocytes (viability>70%) were used to determine the metabolic stability of a compound via calculation of intrinsic clearance (Clint; a measure of the removal of a compound from the liver in the absence of blood flow and cell binding). Clearance data are particularly important for in vitro work as they can be used in combination with in vivo data to predict the half-life and oral bioavailability of a drug.
(§2) The metabolic stability in hepatocytes assay involved a time-dependent reaction using both positive and negative controls. The cells must be pre-incubated at 37° C. then spiked with test compound (and positive control); samples taken at pre-determined time intervals were analysed to monitor the change in concentration of the initial drug compound over 60 minutes. A buffer incubation reaction (with no hepatocytes present) acted as a negative control and two cocktail solutions, containing compounds with known high and low clearance values (verapamil/7-hydroxycoumarin and propranolol/diltiazem), acted as positive controls. • 1. The assay was run with a cell concentration of 0.5×10^6 cells/mL in Leibovitz buffer. • 2. All compounds and controls were run in duplicate. • 3. Compound concentration was 10 μM. • 4. All compounds and controls were incubated with both cells and buffer to show turnover is due to hepatic metabolism. • 5. All wells on the incubation plate had 326.7 μL of either cells or buffer added. • 6. Prior to assay, cell and buffer-only incubation plates were preincubated for 10 mins at 37° C. • 7. The assay was initiated by adding compounds, 3.3 μL of 1 mM in 10% DMSO-90% Buffer; final DMSO concentration is 0.1%. • 8. Samples were taken at regular timepoints (0, 5, 10, 20, 40, 60 min) until 60 mins. • 9. Sample volume was 40 μL and added to 160 μL of crash solvent (acetonitrile with internal standard) and stored on ice. • 10. At the end of the assay, the crash plates were centrifuged at 3500 rpm for 20 mins at 4° C. • 11. 80 μL of clear supernatant was removed and mixed with 80 μL of deionised water before being analysed by LC-MS/MS.
(§3) Raw LC-MS/MS data were exported to, and analysed in, Microsoft Excel for determination of intrinsic clearance. The percentage remaining of a compound was monitored using the peak area of the initial concentration as 100%. Intrinsic clearance and half-life values were calculated using a graph of the natural log of percentage remaining versus the time of reaction in minutes. Half-life (min) and intrinsic clearance (Clint in μL min^−1 10^−6 cells) values were calculated using the gradient of the graph (the elimination rate constant, k) and Equations 1 and 2.

[2] = tested on: hepatocytes; test: Hepatocyte stability assay (mouse); format: in vitro ADME; details: 10 μM compound, 60 min
Source text: as §1, §2, §3

[3] = tested on: IL-1β; test: THP-1 AlphaLISA IL-1β cytokine assay; format: cell-based; details: Homo sapiens, THP-1, differentiated THP-1 cells, LPS 24 hr then Nigericin 1 hour
Method: (§4) Measuring Inhibitory Effects on IL-1V and IL-6 Cytokine Output from THP-1s
(§5) The cytokine inhibition profiles of compounds of formula (I) were determined in a differentiated THP-1 cell assay. All assays were performed in RPMI-1640 growth medium (Gibco), supplemented with 10% fetal bovine serum (FBS; Gibco), 1% penicillin-streptomycin and 1% sodium pyruvate unless specified otherwise. The IL-1β and IL-6 cytokine inhibition assays were run in a background of differentiated THP-1 cells as described below. All reagents described were from Sigma-Aldrich unless specified otherwise. Compounds were prepared as 10 mM DMSO stocks.
(§6) THP-1 cells were expanded as a suspension up to 80% confluence in appropriate growth medium. Cells were harvested, suspended, and treated with an appropriate concentration of phorbol 12-myristate 13-acetate (PMA) over a 72 hr period (37° C./5% CO2).
(§7) Following 72 hrs of THP-1 cell incubation, cellular medium was removed and replaced with fresh growth media containing 1% of FBS. Working concentrations of compounds were prepared separately in 10% FBS treated growth medium and pre-incubated with the cells for 30 minutes (37° C./5% CO2). Following the 30 minute compound pre-incubation, THP-1s were treated with an appropriate concentration of LPS and the THP-1s were subsequently incubated for a 24 hr period (37° C./5% CO2). An appropriate final concentration of Nigericin was then dispensed into the THP-1 plates and incubated for 1 hour (37° C./5% CO2) before THP-1 supernatants were harvested and collected in separate polypropylene 96-well holding plates.
(§8) Reagents from each of the IL-1β and IL-6 commercial kits (Perkin Elmer) were prepared and run according to the manufacturer's instructions. Subsequently, fluorescence signal detection in a microplate reader was measured (EnVision® Multilabel Reader, Perkin Elmer).
(§9) Percentage inhibition was calculated per cytokine by normalising the sample data to the high and low controls used within each plate (+/−LPS respectively). Percentage inhibition was then plotted against compound concentration and the 50% inhibitory concentration ([…]) was determined from the resultant concentration-response curve.

[4] = Hepatocyte stability assay (human); format: in vitro ADME; details: human, cryopreserved hepatocytes, 10 μM compound, 60 min, read-out: T½
Source text: as §1, §2, §3

[5] = tested on: hepatocytes; test: Hepatocyte stability assay (human); format: in vitro ADME; details: 10 μM compound, 60 min
Source text: as §1, §2, §3

[6] = tested on: IL-6; test: THP-1 AlphaLISA IL-6 cytokine assay; format: cell-based; details: Homo sapiens, THP-1, differentiated THP-1 cells, LPS 24 hr then Nigericin 1 hour
Method: as §4, §5, §6, §7, §8, §9

[7] = tested on: NRF2; test: NRF2 +/- GSH activation assay (DiscoverX PathHunter NRF2 translocation kit); format: cell-based; details: for Emax: normalised to dimethyl fumarate high control; for EC50: Homo sapiens, U2OS, U2OS PathHunter cells

C=C(CC(=O)OC(C)(C)c1ccc(C(F)(F)F)cn1)C(=O)O [Example 57, 2-methylene-4-oxo-4-((2-(5-(trifluoromethyl)pyridin-2-yl)propan-2-yl)oxy)butanoic acid]
half-life at 10 μM [1]: 2.52 h | Clint [2]: 10 μL min^−1 10^−6 cells | IC50 [3]: 6.6 µM | half-life at 10 μM [4]: > 7.67 h | Clint [5]: <3 μL min^−1 10^−6 cells | IC50 [6]: > 31.6 µM

C=C(CC(=O)OC1(c2ccc(C(F)(F)F)cc2)CC2(CC2)C1)C(=O)O [Example 61, 2-methylene-4-oxo-4-((5-(4-(trifluoromethyl)phenyl)spiro[2.3]hexan-5-yl)oxy)butanoic acid]
half-life at 10 μM [1]: 1.72 h | Clint [2]: 21 μL min^−1 10^−6 cells | IC50 [3]: 5.5 µM | half-life at 10 μM [4]: 3.58 h | Clint [5]: 6 μL min^−1 10^−6 cells | IC50 [6]: > 100 µM

C=C(CC(=O)OC1(c2ccc(S(F)(F)(F)(F)F)cc2)CCC1)C(=O)O [Example 18, 2-methylene-4-oxo-4-(1-(4-(pentafluoro-λ^6-sulfaneyl)phenyl)cyclobutoxy)butanoic acid]
half-life at 10 μM [1]: 0.633 h | Clint [2]: 50 μL min^−1 10^−6 cells | IC50 [3]: 1.8 µM | half-life at 10 μM [4]: 3.63 h | Clint [5]: 8 μL min^−1 10^−6 cells | IC50 [6]: 62.1 µM

C=C(CC(=O)OC1(c2ccc(C(F)(F)F)cn2)COC1)C(=O)O [Example 46, 2-methylene-4-oxo-4-(3-(5-(trifluoromethyl)pyridin-2-yl)oxetan-3-yloxy)butanoic acid]
half-life at 10 μM [1]: > 7.67 h | Clint [2]: <3 μL min^−1 10^−6 cells | IC50 [3]: 4.1 µM | half-life at 10 μM [4]: > 7.67 h | Clint [5]: <3 μL min^−1 10^−6 cells | IC50 [6]: > 31.6 µM

C=C(CC(=O)OC1(c2ccc(C(F)F)cc2)CCC1)C(=O)O [Example 20, 4-(1-(4-(difluoromethyl)phenyl)cyclobutoxy)-2-methylene-4-oxobutanoic acid]
half-life at 10 μM [1]: 2.33 h | Clint [2]: 13 μL min^−1 10^−6 cells | IC50 [3]: 3 µM | half-life at 10 μM [4]: 7.45 h | Clint [5]: 4 μL min^−1 10^−6 cells | IC50 [6]: 48.7 µM

C=C(CC(=O)O[C@H](c1ccc(C(F)(F)F)cc1)C(F)(F)F)C(=O)O [Example 34, (R)-2-methylene-4-oxo-4-(2,2,2-trifluoro-1-(4-(trifluoromethyl)phenyl)ethoxy)butanoic acid]
half-life at 10 μM [1]: 0.433 h | Clint [2]: 48 μL min^−1 10^−6 cells | IC50 [3]: 12.2 µM | half-life at 10 μM [4]: 0.867 h | Clint [5]: 26 μL min^−1 10^−6 cells | IC50 [6]: > 31.6 µM

C=C(CC(=O)OC1(c2ccc(C(F)(F)C(F)(F)F)cc2)CCC1)C(=O)O [Example 31, 2-methylene-4-oxo-4-(1-(4-(perfluoroethyl)phenyl)cyclobutoxy)butanoic acid]
half-life at 10 μM [1]: 0.7 h | Clint [2]: 38 μL min^−1 10^−6 cells | IC50 [3]: 3.4 µM | half-life at 10 μM [4]: 2.33 h | Clint [5]: 11 μL min^−1 10^−6 cells | IC50 [6]: > 100 µM

C=C(C(=O)O)C(C)(C)C(=O)OC1(c2ccc(C(F)(F)F)cn2)CCC1 [Example 59, 3,3-dimethyl-2-methylene-4-oxo-4-(1-(5-(trifluoromethyl)pyridin-2-yl)cyclobutoxy)butanoic acid]
half-life at 10 μM [1]: > 7.67 h | Clint [2]: <3 μL min^−1 10^−6 cells | IC50 [3]: 2.9 µM | half-life at 10 μM [4]: 2.3 h | Clint [5]: 11 μL min^−1 10^−6 cells | IC50 [6]: > 31.6 µM

C=C(CC(=O)OC1(c2ccc(C(F)(F)F)cc2)CC(C)C1)C(=O)O (single isomer, unassigned) [Example 44, 4-(3-methyl-1-(4-(trifluoromethyl)phenyl)cyclobutoxy)-2-methylene-4-oxobutanoic acid]
half-life at 10 μM [1]: 2.33 h | Clint [2]: 9 μL min^−1 10^−6 cells | IC50 [3]: 5.1 µM | half-life at 10 μM [4]: > 7.67 h | Clint [5]: <3 μL min^−1 10^−6 cells | IC50 [6]: > 100 µM

C=C(C(=O)O)C1(C(=O)OC2(c3ccc(C(F)(F)F)cc3)CCC2)CC1 [Example 39, 2-(1-((1-(4-(trifluoromethyl)phenyl)cyclobutoxy)carbonyl)cyclopropyl)acrylic acid]
half-life at 10 μM [1]: 0.8 h | Clint [2]: 45 μL min^−1 10^−6 cells | IC50 [3]: 1.5 µM | half-life at 10 μM [4]: 1.08 h | Clint [5]: 18 μL min^−1 10^−6 cells | IC50 [6]: > 100 µM

C=C(CC(=O)OC1(c2ccc(C#N)cc2)CCC1)C(=O)O [Example 25, 4-(1-(4-cyanophenyl)cyclobutoxy)-2-methylene-4-oxobutanoic acid]
half-life at 10 μM [1]: 2.95 h | Clint [2]: 9 μL min^−1 10^−6 cells | IC50 [3]: 15.5 µM | half-life at 10 μM [4]: 5.65 h | Clint [5]: 4 μL min^−1 10^−6 cells | IC50 [6]: > 100 µM

C=C(CC(=O)O[C@]1(c2ccc(C(F)(F)F)cc2)C[C@H](C)C1)C(=O)O [Example 45, (cis)-4-(3-methyl-1-(4-(trifluoromethyl)phenyl)cyclobutoxy)-2-methylene-4-oxobutanoic acid]
half-life at 10 μM [1]: 2.6 h | Clint [2]: 8 μL min^−1 10^−6 cells | IC50 [3]: 3.4 µM | half-life at 10 μM [4]: > 7.67 h | Clint [5]: <3 μL min^−1 10^−6 cells | IC50 [6]: > 100 µM

C=C(CC(=O)OC1(c2ccc(C(F)(F)F)cc2)CC(F)(F)C1)C(=O)O [Example 29, 4-(3,3-difluoro-1-(4-(trifluoromethyl)phenyl)cyclobutoxy)-2-methylene-4-oxobutanoic acid]
half-life at 10 μM [1]: 1.32 h | Clint [2]: 20 μL min^−1 10^−6 cells | IC50 [3]: 1.3 µM | half-life at 10 μM [4]: 2.38 h | Clint [5]: 11 μL min^−1 10^−6 cells | IC50 [6]: > 100 µM

C=C(CC(=O)OC1(c2ccc(C(F)(F)F)cc2)CC2(CCC2)C1)C(=O)O [Example 35, 2-methylene-4-oxo-4-((2-(4-(trifluoromethyl)phenyl)spiro[3.3]heptan-2-yl)oxy)butanoic acid]
half-life at 10 μM [1]: 0.5 h | Clint [2]: 73 μL min^−1 10^−6 cells | IC50 [3]: 8.8 µM | half-life at 10 μM [4]: 1.43 h | Clint [5]: 14 μL min^−1 10^−6 cells | IC50 [6]: > 31.6 µM

C=C(CC(=O)O[C@@H](C)c1ccc(C(F)(F)F)cc1)C(=O)O [Example 4, (S)-2-methylene-4-oxo-4-(1-(4-(trifluoromethyl)phenyl)ethoxy)butanoic acid]
Emax ([7]; +GSH): 0% | EC50 ([7]; +GSH): > 100 µM | EC50 ([7]; −GSH): > 100 µM | Emax ([7]; −GSH): 4% | IC50 [3]: 1.9 µM | half-life at 10 μM [4]: 2.45 h | Clint [5]: 10 μL min^−1 10^−6 cells | IC50 [6]: > 56.2 µM
